In patent US6737383B1, “Herbicidal oxadiazolidines” (priority 1999, dated 2004):

How the values were obtained:
[1] = system: bedstraw; test: Test B pre/postemergence bedstraw; type: in vivo, Galium aparine; details: Preemergence
Outline: (§1)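 Herbicidal effect was estimated by eye on a ten-point control scale after plants spent twelve to sixteen days in a greenhouse following soil or foliar treatment. Foliar sprays targeted plants at one to four leaves; all doses were formulated in a non-phytotoxic solvent with surfactant.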

[2] = system: blackgrass; test: Test B pre/postemergence blackgrass; type: in vivo, Alopecurus myosuroides; details: Preemergence
Outline: as §1

[3] = system: surinam grass; test: Test B pre/postemergence surinam grass; type: in vivo, Brachiaria decumbens; details: Preemergence
Outline: as §1

[4] = system: cocklebur; test: Test B pre/postemergence cocklebur; type: in vivo, Xanthium strumarium; details: Preemergence
Outline: as §1

[5] = system: corn; test: Test B pre/postemergence corn; type: in vivo, Zea mays; details: Preemergence
Outline: as §1

[6] = system: crabgrass; test: Test B pre/postemergence crabgrass; type: in vivo, Digitaria sanguinalis; details: Preemergence
Outline: as §1

[7] = system: giant foxtail; test: Test B pre/postemergence giant foxtail; type: in vivo, Setaria faberii; details: Preemergence
Outline: as §1

[8] = system: morningglory; test: Test B pre/postemergence morningglory; type: in vivo, Ipomoea hederacea; details: Preemergence
Outline: as §1

[9] = system: pigweed; test: Test B pre/postemergence pigweed; type: in vivo, Amaranthus retroflexus; details: Preemergence
Outline: as §1

[10] = system: rape; test: Test B pre/postemergence rape; type: in vivo, Brassica napus; details: Preemergence
Outline: as §1

[11] = system: soybean; test: Test B pre/postemergence soybean; type: in vivo, Glycine max; details: Preemergence
Outline: as §1

[12] = system: sugar beet; test: Test B pre/postemergence sugar beet; type: in vivo, Beta vulgaris; details: Preemergence
Outline: as §1

[13] = system: velvetleaf; test: Test B pre/postemergence velvetleaf; type: in vivo, Abutilon theophrasti; details: Preemergence
Outline: as §1

[14] = system: wheat; test: Test B pre/postemergence wheat; type: in vivo, Triticum aestivum; details: Preemergence
Outline: as §1

[15] = system: wild oat; test: Test B pre/postemergence wild oat; type: in vivo, Avena fatua; details: Preemergence
Outline: as §1

[16] = system: purple nutsedge; test: Test B pre/postemergence purple nutsedge; type: in vivo, Cyperus rotundus; details: Preemergence, scale of 0 to 10 where 0 is no effect and 10 is complete control
Outline: as §1

[17] = Rate 62 g/ha, scale of 0 to 10 where 0 is no effect and 10 is complete control
[18] = Rate 125 g/ha, scale of 0 to 10 where 0 is no effect and 10 is complete control
[19] = Rate 250 g/ha, scale 0 to 10 (0 no effect, 10 complete control)
[20] = Rate 500 g/ha, scale of 0 to 10 where 0 is no effect and 10 is complete control

CC(C)N(C(=O)n1oc(=O)n(CCF)c1=O)c1ccccc1 [Compound 669]
Bedstraw plant response rating [1, 17]: 0 | Bedstraw plant response rating [1, 18]: 7 | Plant response rating, Bedstraw [1, 19]: 9 | Plant response rating, Bedstraw [1, 20]: 9 | Blackgrass plant response rating [2, 17]: 9 | Blackgrass plant response rating [2, 18]: 10 | Plant response rating, Blackgrass [2, 19]: 10 | Plant response rating, Blackgrass [2, 20]: 10 | B. signalgrass plant response rating [3, 17]: 8 | B. signalgrass plant response rating [3, 18]: 8 | Plant response rating, B. signalgrass [3, 19]: 10 | Plant response rating, B. signalgrass [3, 20]: 10 | Cocklebur plant response rating [4, 17]: 0 | Cocklebur plant response rating [4, 18]: 0 | Plant response rating, Cocklebur [4, 19]: 0 | Plant response rating, Cocklebur [4, 20]: 0 | Corn plant response rating [5, 17]: 2 | Corn plant response rating [5, 18]: 9 | Plant response rating, Corn [5, 19]: 9 | Plant response rating, Corn [5, 20]: 9 | Crabgrass plant response rating [6, 17]: 9 | Crabgrass plant response rating [6, 18]: 9 | Plant response rating, Crabgrass [6, 19]: 9 | Plant response rating, Crabgrass [6, 20]: 10 | Giant foxtail plant response rating [7, 17]: 9 | Giant foxtail plant response rating [7, 18]: 9 | Plant response rating, Giant foxtail [7, 19]: 10 | Plant response rating, Giant foxtail [7, 20]: 10 | Morningglory plant response rating [8, 17]: 0 | Morningglory plant response rating [8, 18]: 0 | Plant response rating, Morningglory [8, 19]: 0 | Plant response rating, Morningglory [8, 20]: 0 | Redroot pigweed plant response rating [9, 17]: 6 | Redroot pigweed plant response rating [9, 18]: 10 | Plant response rating, Redroot pigweed [9, 19]: 10 | Plant response rating, Redroot pigweed [9, 20]: 10 | Rape plant response rating [10, 17]: 2 | Rape plant response rating [10, 18]: 4 | Plant response rating, Rape [10, 19]: 8 | Plant response rating, Rape [10, 20]: 9 | Soybean plant response rating [11, 17]: 0 | Soybean plant response rating [11, 18]: 2 | Plant response rating, Soybean [11, 19]: 3 | Plant response rating, Soybean [11, 20]: 6 | Sugarbeets plant response rating [12, 17]: 6 | Sugarbeets plant response rating [12, 18]: 8 | Plant response rating, Sugarbeets [12, 19]: 8 | Plant response rating, Sugarbeets [12, 20]: 9 | Velvetleaf plant response rating [13, 17]: 0 | Velvetleaf plant response rating [13, 18]: 0 | Plant response rating, Velvetleaf [13, 19]: 0 | Plant response rating, Velvetleaf [13, 20]: 0 | Wheat plant response rating [14, 17]: 6 | Wheat plant response rating [14, 18]: 5 | Plant response rating, Wheat [14, 19]: 8 | Plant response rating, Wheat [14, 20]: 8 | Wild oats plant response rating [15, 17]: 10 | Wild oats plant response rating [15, 18]: 10 | Plant response rating, Wild oats [15, 19]: 10 | Plant response rating, Wild oats [15, 20]: 10 | Nutsedge plant response rating ([16]; Rate 62 g/ha): 0 | Plant response rating, Nutsedge ([16]; Rate 500 g/ha): 6
